Experimental findings from patent US20230271959A1, “HETEROCYCLIC COMPOUND AS BCL-2 INHIBITOR” (Beijing Innocare Pharma Tech Co., Ltd., priority 2020, published 2023) are described below.

Assay [1] relates to RS4;11 cells (acute lymphoblastic leukemia cells). Briefly: RS4;11 cell proliferation, CellTilter-Glo luminescence cell viability assay. The class given is cell-based. As to conditions: Homo sapiens, RS4-11; CTG readout after 48 hours. The method, then:
The effects of the compounds of the present invention on the proliferation of RS4;11 cells were evaluated using a luminescence cell viability assay.
A CellTilter-Glo (CTG) Assay Kit is used to detect ATP, a key indicator of the metabolism of living cells, through a unique, highly sensitive and stable luciferase. The luminescent signal generated in the assay is proportional to the number of the viable cells in the medium, therefore the cell proliferation of RS4;11 can be determined.
CellTilter-Glo reagent (Promega, G7572) is composed of CellTilter-Glo lyophilized powder and CellTilter-Glo buffer, and the lyophilized powder can be dissolved in the buffer for use.
RS4;11 cells (ATCC, CRL-1873) were cultured in RPMI1640 complete medium (Thermofisher, 72400-047) containing 10% FBS (GBICO, 10099-141) and 100 units/ml penicillin-streptomycin solution (Thermofisher, 15140122)), when the cells covered 80-90% in the culture vessel, they were digested and dispersed with 0.25% trypsin (containing EDTA) (Thermofisher, 25200056) and then planted in a white 384-well plate (Thermofisher, 164610), and then the 384-well plate was incubated overnight in a 37° C., 5% CO2 incubator. Compounds were dissolved in 100% DMSO and diluted to […], followed by 4-fold serial dilutions with DMSO to a minimum concentration of 0.061 μM, and each concentration point was further diluted 50-fold with FBS-free RPMI1640 medium. If the IC50 of the compound is very low, the initial concentration of the compound can be reduced. After overnight, 3 μL of the compound diluted in the medium was added to each well, and the mixture was gently centrifuged to mix. The group without cells was used as a negative control (100% inhibition), and the group with 0.2% DMSO was used as a positive control (0% inhibition). The 384-well plate was placed in a 37° C., 5% CO2 incubator for further cultivation. After 48 hours, the plate was taken out and equilibrated to room temperature. 15 μl of CTG reagent was added to each well, the plate was shaken gently for 3 minutes to make sure that the cell lysis was carried out thoroughly, then the plate was kept for 10 minutes to stabilize the luminescence signal, then the luminescence signal was read by EnVision (Perkin Elmer).
The inhibition percentage of the compounds to RS4;11 cell proliferation can be calculated using the following equation:
Inhibition Percentage=100−100*(signal compound-signal negative control)/(signal positive control-signal negative control)
(§1) The IC50 of the compound was calculated from 8 concentration points using XLfit (ID Business Solutions Ltd., UK) software by the following equation:
Y=Bottom+(Top−Bottom)/(1+10^((Log IC50−X)*slope factor))
wherein, Y is the inhibition percentage, Bottom is the bottom plateau of the curve (the bottom plateau value of the S-shaped curve), Top is the top plateau of the curve (the top plateau value of the S-shaped curve), and X is the logarithm of the concentration of the compound to be tested.

Assay [2] has as its target T1, human recombinant Bcl-XL protein (Homo sapiens, UniProt Q07817).
T1 construct: purchased Beijing Yiqiao Shenzhou Biotechnology Co., Ltd. 10455-H0SE
The experiment in a line: Fluorescence polarization test for inhibition of BCL-XL binding to FITC-BIM. As to conditions: 10 nM BCL-XL, 10 nM FITC-BIM, read-out: FP BCL-XL IC50. As for the experimental part: Fluorescence polarization assay was used to evaluate the effect of the compounds of the present invention on the biological activity of BCL-XL.
The effects of the compounds on the biological activity of BCL-XL were evaluated by detecting the effects of the compounds on the binding activity of BCL-XL to BIM using an affinity assay method based on the principle of fluorescence polarization. The reaction buffer contains the following components: PBS (pH 7.4, 3 mM Na2HPO4, 155 mM NaCl, 1 mM KH2PO4), 1 mM DTT; human recombinant Bcl-XL protein (Item No. 10455-H0SE) (purchased from Beijing Yiqiao Shenzhou Biotechnology Co., Ltd.) was diluted to 10 nM with reaction buffer; FITC-labeled BIM polypeptide (purchased from Nanjing GenScript Biotechnology Co., Ltd) was diluted to 10 nM with reaction buffer.
The compounds were dissolved in 100% DMSO and diluted to 1 μM, followed by 4-fold serial dilutions in DMSO to a minimum concentration of 0.061 nM, each concentration point was further diluted 50-fold with reaction buffer.
3 μL of solution containing the compound and 12 μL of solution containing BCL-XL were added to the black 384-well assay plate, mixed well, and incubated at room temperature for 15 minutes. Subsequently, 15 μL of FITC-BIM solution was added, and the reaction mixture was incubated at room temperature for 30 minutes in the dark place, and then the fluorescence polarization was detected immediately on an Envision multi-plate reader (Perkin Elmer), with 480 nm as the excitation wavelength and 535 nm as the emission wavelength. In this experiment, the group without BCL-XL protein was used as a negative control (100% inhibition), and the group with BCL-XL protein but without the compound was added as a positive control (0% inhibition). The inhibition percentage of the compound to the affinity of BCL-XL can be calculated using the following equation: […]
as §1
(§2) Y=Bottom+(Top−Bottom)/(1+10^((log IC50−X)*slope factor))
(§3) where Y is the inhibition percentage, X is the logarithm of the concentration of the compound to be tested, Bottom is the maximum inhibition percentage, Top is the minimum inhibition percentage, and slope factor is the slope coefficient of the curve.
(In fluorescence polarisation assays a small probe gives low polarisation when free and higher when bound to something large.)

Assay [3] addresses T2, human recombinant Bcl-2 protein (Homo sapiens, UniProt P10415).
T2 construct: purchased Beijing Yigiao Shenzhou Biotechnology Co., Ltd. 10195-HOSE
Briefly: Fluorescence polarization test for inhibition of BCL-2 binding to FITC-BIM. As to conditions: 5 nM BCL-2, 5 nM FITC-BIM, read-out: FP BCL-2 IC50. As for the experimental part:
Fluorescence polarization assay was used to evaluate the effect of the compounds of the present invention on the biological activity of BCL-2.
The effects of the compounds on the biological activity of BCL-2 were evaluated by determining the effects of the compounds on the binding activity of BCL-2 to leukemia pro-apoptotic protein (BIM) using an affinity assay method based on the principle of fluorescence polarization. The reaction buffer comprises the following components: PBS (pH 7.4, 3 mM Na2HPO4, 155 mM NaCl, 1 mM KH2PO4), 1 mM DTT; human recombinant Bcl-2 protein (Item No. 10195-HOSE) (purchased from Beijing Yigiao Shenzhou Biotechnology Co., Ltd.) was diluted to 5 nM with the reaction buffer; FITC-labeled BIM polypeptide (purchased from Nanjing GenScript Biotechnology Co., Ltd.) was diluted to 5 nM with the reaction buffer.
The compounds were dissolved in 100% DMSO and diluted to 0.1, 1, 10 μM, followed by 4-fold serial dilutions with DMSO to a minimum concentration of 0.0061, 0.061, 0.61 nM, each concentration point was further diluted 50-fold with the reaction buffer.
3 μL of solution containing the compound and 12 μL of solution containing BCL-2 were added to the black 384-well assay plate, mixed well, and incubated at room temperature for 15 minutes. Subsequently, 15 μL of FITC-BIM solution was added, and the reaction mixture was incubated at room temperature for 30 minutes in dark place, and then the fluorescence polarization was detected immediately on an Envision multi-mode reader (Perkin Elmer), with 480 nm as the excitation wavelength and 535 nm as the emission wavelength. In this experiment, the group without BCL-2 protein was used as a negative control (100% inhibition), and the group with BCL-2 protein but without the compound was used as a positive control (0% inhibition). The inhibition percentage of the compound to the affinity of BCL-2 can be calculated using the following equation: […]
as §1, §2, §3

Where only a bound is given, the exact number is not on record here.

For orientation: IC50 means the concentration needed to halve the response being measured.

T1 sequence (Q07817 whole entry): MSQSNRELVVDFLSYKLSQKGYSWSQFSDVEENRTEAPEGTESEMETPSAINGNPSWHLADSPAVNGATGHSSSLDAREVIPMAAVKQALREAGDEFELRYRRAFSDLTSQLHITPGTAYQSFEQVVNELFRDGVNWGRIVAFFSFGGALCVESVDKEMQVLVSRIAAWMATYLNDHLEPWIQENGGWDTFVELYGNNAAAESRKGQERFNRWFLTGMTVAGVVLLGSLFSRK
T2 sequence (P10415 whole entry): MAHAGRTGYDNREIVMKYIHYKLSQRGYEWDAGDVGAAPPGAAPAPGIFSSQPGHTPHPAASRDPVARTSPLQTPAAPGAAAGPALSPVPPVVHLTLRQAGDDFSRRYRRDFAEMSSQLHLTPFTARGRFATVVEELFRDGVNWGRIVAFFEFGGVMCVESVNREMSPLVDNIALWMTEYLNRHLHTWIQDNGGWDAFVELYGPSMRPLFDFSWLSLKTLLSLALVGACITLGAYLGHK

For `C[C@@H]1CN(c2ccc(C(=O)NS(=O)(=O)c3cc(F)c(NC[C@H]4COCCO4)c([N+](=O)[O-])c3)c(Oc3cnc4[nH]ccc4c3)c2)CCN1CC1=C(c2ccc(Cl)cc2)CC(C)(C)CC1` [Example 6, N-((4-((((S)-1,4-dioxan-2-yl)methyl)amino)-3-fluoro-5-nitrophenyl)sulfonyl)-2-((1H-pyrrolo[2,3-b]pyridin-5-yl)oxy)-4-((R)-4-((4′-chloro-5,5-dimethyl-3,4,5,6-tetrahydro-[1,1′-biphenyl]-2-yl)methyl)-3-methylpiperazin-1-yl) benzamide], the IC50 in assay [1] was 2.37 nM; in assay [2] it was more than 1000 nM; in assay [3], 0.9 nM.
With `C[C@H]1CN(c2ccc(C(=O)NS(=O)(=O)c3cc(F)c(NCC4CCOCC4)c([N+](=O)[O-])c3)c(Oc3cnc4[nH]ccc4c3)c2)CCN1CC1=C(c2ccc(Cl)cc2)CC(C)(C)CC1` [Example 7, (S)-2-((1H-pyrrolo[2,3-b]pyridin-5-yl)oxy)-(4-4-((4′-chloro-5,5-dimethyl-3,4,5,6-tetrahydro-[1,1′-biphenyl]-2-yl)methyl)-3-methylpiperazin-1-yl)-N-((3-fluoro-5-nitro-4-(((tetrahydro-2H-pyran-4-yl)methyl)amino)phenyl)sulfonyl) benzamide], the values for the IC50 in assay [1], in assay [2] and in assay [3] were more than 500 nM, more than 1000 nM and more than 100 nM, respectively.
On the same counts, the results for `C[C@@H]1CN(CC2=C(c3ccc(Cl)cc3)CC(C)(C)CC2)CCN1c1ccc(C(=O)NS(=O)(=O)c2ccc(NCC3CCOCC3)c([N+](=O)[O-])c2)c(Oc2cnc3[nH]ccc3c2)c1` [Example 8, (R)-2-((1H-pyrrolo[2,3-b]pyridin-5-yl)oxy)-4-(4-((4′-chloro-5,5-dimethyl-3,4,5,6-tetrahydro-[1,1′-biphenyl]-2-yl)methyl)-2-methylpiperazin-1-yl)-N-((3-nitro-4-(((tetrahydro-2H-pyran-4-yl)methyl)amino)phenyl)sulfonyl)benzamide] are 6.2 nM, more than 1000 nM and 4.55 nM.
The matching figures for `C[C@@H]1CN(CC2=C(c3ccc(Cl)cc3)CC(C)(C)CC2)CCN1c1ccc(C(=O)NS(=O)(=O)c2ccc(NCC3CCN(C4COC4)CC3)c([N+](=O)[O-])c2)c(Oc2cnc3[nH]ccc3c2)c1` [Example 9, (R)-2-((1H-pyrrolo[2,3-b]pyridin-5-yl)oxy)-4-(4-((4′-chloro-5,5-dimethyl-3,4,5,6-tetrahydro-[1,1′-biphenyl]-2-yl)methyl)-2-methylpiperazin-1-yl)-N-((3-nitro-4-(((1-(3-oxetan-yl)piperidin-4-yl)methyl)amino)phenyl)sulfonyl) benzamide]: 26 nM, more than 1000 nM and 5.03 nM.
The matching figures for `C[C@@H]1CN(CC2=C(c3ccc(Cl)cc3)CC(C)(C)CC2)CCN1c1ccc(C(=O)NS(=O)(=O)c2cc(F)c(NCC3CCN(C4COC4)CC3)c([N+](=O)[O-])c2)c(Oc2cnc3[nH]ccc3c2)c1` [Example 10, (R)-2-((1H-pyrrolo[2,3-b]pyridin-5-yl)oxy)-4-(4-((4′-chloro-5,5-dimethyl-3,4,5,6-tetrahydro-[1,1′-biphenyl]-2-yl)methyl)-2-methylpiperazin-1-yl)-N-((3-fluoro-5-nitro-4-(((1-(3-oxetanyl)piperidin-4-yl)methyl)amino)phenyl)sulfonyl)benzamide]: 68 nM, more than 1000 nM and 8.21 nM.
For `C[C@@H]1CN(CC2=C(c3ccc(Cl)cc3)CC(C)(C)CC2)CCN1c1ccc(C(=O)NS(=O)(=O)c2cc(F)c(NCC3CCOCC3)c([N+](=O)[O-])c2)c(Oc2cnc3[nH]ccc3c2)c1` [Example 11], the IC50 was 42 nM in assay [1], more than 1000 nM in assay [2] and 12.8 nM in assay [3].
Turning to `C[C@@H]1CN(CC2=C(c3ccc(Cl)cc3)CC(C)(C)CC2)CCN1c1ccc(C(=O)NS(=O)(=O)c2ccc(NC[C@H]3COCCO3)c([N+](=O)[O-])c2)c(Oc2cnc3[nH]ccc3c2)c1` [Example 12], the IC50 in assay [1] is 16 nM; in assay [2], more than 1000 nM; in assay [3] it was 4.89 nM.
The matching figures for `C[C@H]1CN(CC2=C(c3ccc(Cl)cc3)CC(C)(C)CC2)CCN1c1ccc(C(=O)NS(=O)(=O)c2ccc(NCC3CCOCC3)c([N+](=O)[O-])c2)c(Oc2cnc3[nH]ccc3c2)c1` [Example 13, (S)-2-((1H-pyrrolo[2,3-b]pyridin-5-yl)oxy)-4-(4-((4′-chloro-5,5-dimethyl-3,4,5,6-tetrahydro-[1,1′-biphenyl]-2-yl)methyl)-2-methylpiperazin-1-yl)-N-((3-nitro-4-(((tetrahydro-2H-pyran-4-yl)methyl)amino)phenyl)sulfonyl)benzamide]: more than 500 nM, more than 1000 nM and more than 100 nM.
Take `C[C@H]1CCC(CN2CCN(c3ccc(C(=O)NS(=O)(=O)c4cc(F)c(NCC5CCOCC5)c([N+](=O)[O-])c4)c(Oc4cnc5[nH]ccc5c4)c3)C[C@H]2C)=C(c2ccc(Cl)cc2)C1` [Example 14]: the results for the IC50 in assay [1], in assay [2] and in assay [3] were 3.8 nM, more than 1000 nM and 2.35 nM, respectively.
